Experimental findings from US20110144014A1, “CYTOKINE RECEPTOR MODULATORS AND USES THEREOF” (CENTRE HOSPITALIER UNIVERSITAIRE SAINTE-JUSTINE, priority 2005, published 2011) are described below.

Molecules are shown by their SMILES. Where a SMILES comes first, the peptide text is derived from it. [ ]: non-standard residue; d: D form.

In one experiment the test system is IL-1R/IL-1RacP. The experiment is described as follows: IL-1-induced PGE2 synthesis in endothelial cells. The experiment is classed as cell-based, porcine. The method, then:
Efficiencies and inhibitory activities of the mutated peptides were determined by measuring the inhibition of IL-1-induced PGE2 synthesis. […] All peptides were tested at concentration 10^−6M.
The arginine of API-101.10 (SEQ ID NO: 10) was replaced by citrulline—to change from a guanidine to a urea group near the N-terminal. Other mutations (e.g. E to Q in API-101.102 and API-101.103) and a truncated peptide at the C-terminal (API-101.108) were also performed to improve the potency and the efficacy of the peptides. Measurement of PGE2 was performed with piglet brain microvessel endothelial cells and WI-38 human fibroblasts. Some of the mutations were advantageous and gave major increases in potency.
IL-1-induced PGE2 synthesis assay on endothelial cells was used as a screening assay for the peptidomimetics.

The target in a further experiment is T1, IL-1R (Homo sapiens, UniProt P14778).
T1 sequence (P14778 18-569): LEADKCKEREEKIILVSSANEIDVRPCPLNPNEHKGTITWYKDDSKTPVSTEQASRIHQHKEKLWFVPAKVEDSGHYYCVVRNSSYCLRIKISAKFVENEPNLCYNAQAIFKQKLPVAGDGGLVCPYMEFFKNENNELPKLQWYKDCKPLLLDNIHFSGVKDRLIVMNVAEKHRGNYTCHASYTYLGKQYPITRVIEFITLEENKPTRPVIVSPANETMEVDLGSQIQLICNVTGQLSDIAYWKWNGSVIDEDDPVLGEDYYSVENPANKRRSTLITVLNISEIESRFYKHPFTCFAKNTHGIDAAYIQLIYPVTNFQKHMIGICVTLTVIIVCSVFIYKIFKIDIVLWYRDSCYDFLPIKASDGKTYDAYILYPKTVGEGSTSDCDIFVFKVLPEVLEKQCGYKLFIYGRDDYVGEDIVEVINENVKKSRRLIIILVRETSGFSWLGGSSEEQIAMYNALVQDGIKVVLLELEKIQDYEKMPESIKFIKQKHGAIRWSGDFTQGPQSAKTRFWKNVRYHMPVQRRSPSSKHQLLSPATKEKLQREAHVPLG
T1 sequence (Q9NPH3 21-570 partner): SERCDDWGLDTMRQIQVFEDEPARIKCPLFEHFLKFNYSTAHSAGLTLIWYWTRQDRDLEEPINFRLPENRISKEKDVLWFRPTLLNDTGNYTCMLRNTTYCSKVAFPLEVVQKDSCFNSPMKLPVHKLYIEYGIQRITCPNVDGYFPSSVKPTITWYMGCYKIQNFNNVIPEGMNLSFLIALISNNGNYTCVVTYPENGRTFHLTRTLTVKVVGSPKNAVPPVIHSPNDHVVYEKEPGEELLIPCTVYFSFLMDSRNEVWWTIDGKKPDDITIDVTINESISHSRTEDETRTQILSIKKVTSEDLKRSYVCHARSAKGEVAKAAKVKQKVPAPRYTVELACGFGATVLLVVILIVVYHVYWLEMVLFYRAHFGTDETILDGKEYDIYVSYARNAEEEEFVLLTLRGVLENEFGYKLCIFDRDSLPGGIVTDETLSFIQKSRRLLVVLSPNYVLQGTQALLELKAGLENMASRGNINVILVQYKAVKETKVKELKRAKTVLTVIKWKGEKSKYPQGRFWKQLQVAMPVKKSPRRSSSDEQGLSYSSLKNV
The experiment in a line: IL-1R antagonist activity, structure vs. activity text, assay not stated.

Experiment [1] deals with VEGFR2 (Flk-1). The experiment is described as follows: VEGF induced proliferation of microvascular endothelial cells (3H-thymidine). The experiment is classed as cell-based, porcine. Particulars: VEGF 2 ng/ml. The method, then:
(§1) To determine the efficient and non-cytotoxic concentration of VEGF to use in the assay, a dose-response curve of VEGF was generated in two types of cells, namely microvascular endothelial cells and pulmonary artery endothelial cells (PAEC) that had been transfected with the Flk-1 gene. The proliferation was then measured in those two types of cells in the presence of peptides 2.1, 2.2 and 2.3 and of VEGF (2 ng/ml) pursuant to the incorporated tritiated thymidine method. The cells were preincubated at 37° C. with the different peptides at different concentrations. They were incubated with VEGF (2 ng/ml) for 24 hours. The cells were contacted with ^3H-Thymidine for 24 hours, washed and lysed. The radioactivity was measured with a scintillation counter.

In experiment [2] the target is T2, VEGFR2 (Flk-1) (Homo sapiens, UniProt P35968).
T2 construct: expressed in transfected cells; host or cells: pulmonary artery endothelial cells (PAEC)
The experiment in a line: VEGF induced proliferation of PAEC transfected with the Flk-1 gene (3H-thymidine). In kind it is cell-based. Particulars: VEGF 2 ng/ml. As to the method: as §1

Experiment [3] deals with neovascularization in rat retinas. The experiment is described as follows: Ischemic retinopathy model. In kind it is in vivo. Particulars: rat pups, 80% O2 then normoxia; intravitreal, 10 μM final. As to the method: The efficiency of the selected peptides was verified in vivo in a ischemic retinopathy model, a phenomena highly dependent on VEGF activation. Rat pups were exposed to 80% O2 followed by a period of normoxia (21% O2). The peptides were injected at a final concentration of 10 μM in the vitreous body. The retinas were then retrieved, colored with the ADPase method and mounted on slides. Photographs of the retinas were taken with a microscope linked to a computer and the vascular density was evaluated with the Imagepro software.

T2 sequence (P35968 20-1356): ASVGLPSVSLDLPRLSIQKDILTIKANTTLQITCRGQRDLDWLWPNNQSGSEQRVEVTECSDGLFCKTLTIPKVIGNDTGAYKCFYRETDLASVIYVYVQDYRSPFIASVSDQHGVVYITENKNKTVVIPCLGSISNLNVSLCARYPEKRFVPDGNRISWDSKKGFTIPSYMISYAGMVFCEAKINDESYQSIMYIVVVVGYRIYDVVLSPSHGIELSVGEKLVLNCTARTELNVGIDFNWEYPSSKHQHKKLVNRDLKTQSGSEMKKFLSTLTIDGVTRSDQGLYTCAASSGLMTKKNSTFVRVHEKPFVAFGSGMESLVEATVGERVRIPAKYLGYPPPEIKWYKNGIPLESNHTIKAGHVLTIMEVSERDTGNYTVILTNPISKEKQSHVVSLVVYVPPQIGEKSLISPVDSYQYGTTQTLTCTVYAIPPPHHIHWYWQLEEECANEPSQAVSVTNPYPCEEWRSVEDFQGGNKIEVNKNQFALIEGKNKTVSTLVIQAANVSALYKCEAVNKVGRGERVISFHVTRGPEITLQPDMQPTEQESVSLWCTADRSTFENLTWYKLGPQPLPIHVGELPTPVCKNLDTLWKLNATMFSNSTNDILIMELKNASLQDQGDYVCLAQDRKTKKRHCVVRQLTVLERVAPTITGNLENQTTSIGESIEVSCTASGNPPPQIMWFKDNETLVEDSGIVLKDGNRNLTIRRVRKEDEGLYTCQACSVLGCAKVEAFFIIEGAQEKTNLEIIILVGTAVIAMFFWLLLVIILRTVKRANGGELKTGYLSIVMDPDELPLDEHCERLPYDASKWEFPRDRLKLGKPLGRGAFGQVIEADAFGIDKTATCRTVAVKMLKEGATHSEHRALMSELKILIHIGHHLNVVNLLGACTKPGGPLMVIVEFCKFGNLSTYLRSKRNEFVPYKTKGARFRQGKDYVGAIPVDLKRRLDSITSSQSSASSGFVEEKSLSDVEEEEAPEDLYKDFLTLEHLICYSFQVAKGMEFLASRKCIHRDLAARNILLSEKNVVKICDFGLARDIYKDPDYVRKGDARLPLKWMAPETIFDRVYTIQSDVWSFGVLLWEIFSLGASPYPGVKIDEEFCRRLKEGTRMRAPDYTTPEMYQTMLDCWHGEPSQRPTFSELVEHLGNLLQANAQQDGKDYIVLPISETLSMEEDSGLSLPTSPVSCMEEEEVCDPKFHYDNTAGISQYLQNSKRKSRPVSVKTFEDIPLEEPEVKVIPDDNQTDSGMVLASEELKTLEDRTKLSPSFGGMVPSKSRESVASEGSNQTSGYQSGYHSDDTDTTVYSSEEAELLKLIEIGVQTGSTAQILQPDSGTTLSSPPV

Take `CC(C)C[C@@H](NC(=O)[C@@H](CCC(=O)O)NC(=O)[C@H]1CC[C@H]2CC[C@@H](NC(=O)[C@@H](Cc3ccc(O)cc3)NC(=O)[C@H](N)CCCNC(=N)N)C(=O)N21)C(=O)N[C@H](C)C(N)=O` [API-101.110, RY(I^2aa)ELA]: in the experiment with IL-1R/IL-1RacP, the “efficacy relative to API-101.107” value is listed as “twice the efficacy” and the “potency relative to API-101.107” value was found to be 10 fold. Moreover, on IL-1R, the IC50 turned out to be 0.01 nM.

Take `CC(C)C[C@@H](NC(=O)[C@@H](CCCNC(=N)N)NC(=O)[C@H](NC(=O)[C@@H](CCCNC(=N)N)NC(=O)[C@@H](CCC(=O)O)NC(=O)CNC(=O)[C@H](NC(=O)[C@H](NC(=O)[C@@H](C)NC(=O)[C@H](N)CCC(=O)O)[C@H](C)O)C(C)C)C(C)C)C(=O)O` [Peptide 2.2] (H-[dE][dA][dT][dV]G[dE][dR][dV][dR][dL]-OH; N-terminus and C-terminus assumed): the VEGF induced proliferation entry in the experiment on VEGFR2 (Flk-1) [1] is reported as “completely abrogated”. Further, on VEGFR2 (Flk-1) [2], the EC50 came out at 9 µM. In experiment [3], the induced neovascularization result is given as “most effective inhibitor of neovascularization”.

As a reminder, the IC50 is the concentration that inhibits the measured activity by half. Low values mean greater potency in that assay, high ones weaker potency in that assay. Usually EC50 stands for the midpoint of the concentration-response curve.
